The source of these data is patent US10647680B2, “Urea compound, preparation method therefor and medical use thereof” (Ancureall Pharmaceutical (Shanghai) Co., Ltd., priority 2016, dated 2020).

Structures are written as SMILES.

For assay [1], the system named is MV4-11 (FLT3 ITD+/+ mutant type). Briefly: In vitro growth inhibition (GI50), MV4-11. The format is cell-based, human. Conditions: Homo sapiens, MV4-11; Cell lines of leukemia; read-out: GI 50 MV4-11 FLT3 (ITD +/+).
Another assay concerns HL-60 (FLT3 wild type). Briefly: In vitro growth inhibition (GI50), HL-60. The format is cell-based. As to conditions: Homo sapiens, Cell lines of leukemia, read-out: GI 50 HL60 FLT3 (WT). The essentials:
(§1)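 After 3–5 days of treatment (top concentration 5,000 nM, serially diluted 2- or 10-fold to 0.01 nM, solvent ≤1%), viability was read by CCK8 at OD450. Growth rate was normalised to the time-zero and solvent-control wells, and GI50 was derived from the curve. Cultures in RPMI1640 + 10% FBS.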

Another assay has as its system U937 (FLT3 wild-type). Put plainly: In vitro growth inhibition (GI50), U937. Type of assay: cell-based. Conditions: Homo sapiens, U-937; Cell lines of leukemia; read-out: GI 50 U937 FLT 3(WT).
Assay [2] has as its system K562 (FLT3 negative expression, positive expression of BCR-ABL fusion protein). Put plainly: In vitro growth inhibition (GI50), K562. Type of assay: cell-based. As to conditions: Homo sapiens, Cell lines of leukemia, read-out: GI 50 K562 BCR-ABL.
For another assay, the system named is RS4; 11 (FLT3 wild type). Briefly: In vitro growth inhibition (GI50), RS4; 11. The format is cell-based, human. As to conditions: Homo sapiens, RS4-11; Cell lines of leukemia; read-out: GI 50 RS4: 11 FLT3 (WT).
In assay [3] the test system is KG-1 (expressing FGFR1OP2-FGFR1 fusion protein). Briefly: In vitro growth inhibition (GI50), KG-1. Type of assay: cell-based. As to conditions: Homo sapiens; Cell lines of leukemia; read-out: GI 50 KG-1 FGFR1OP 2-FGFR1.
The test system of assay [4] is MOLM-13 (FLT3 ITD+/− mutant type). Put plainly: In vitro growth inhibition (GI50), MOLM-13. The format is cell-based, human. As to conditions: Homo sapiens, MOLM-13; Cell lines of leukemia; read-out: GI 50 MOLM-13 FLT3 (ITD+/−).
Assay [5] relates to RAMOS (positive expression of Brutons tyrosine protein kinase). Briefly: In vitro growth inhibition (GI50), RAMOS. Type of assay: cell-based. Conditions: Homo sapiens, Cell lines of leukemia, read-out: GI 50 Ramos BTK.
Assay [6] relates to Kasumi-1 (c-Kit N822K mutant type). Put plainly: In vitro growth inhibition (GI50), Kasumi-1. The format is cell-based. Conditions: Homo sapiens, Cell lines of leukemia, read-out: GI 50 Kasumi-1 Kit (N822K). The method, boiled down: as §1
For assay [7], the system named is OCI-AML3 (NPMc+ mutant type). Briefly: In vitro growth inhibition (GI50), OCI-AML3. Type of assay: cell-based. Conditions: Homo sapiens, OCI-AML-3; Cell lines of leukemia; read-out: GI 50 OCI- AML3 NPMc+.

As to `COc1cc2ncn(-c3ccc(NC(=O)Nc4cc(C(C)(C)C)n[nH]4)cc3)c2cc1OC` [Compound 99, 1-(5-tert-butyl-2H-pyrazol-3-yl)-3-[4-(5,6-dimethoxyl-benzimidazol-1-yl)-phenyl]-urea], the GI50 in assay [1] was 0.0001 to 0.001 µM; in the assay with HL-60 (FLT3 wild type), above 1 µM; in the assay on U937 (FLT3 wild-type), above 1 µM; in assay [2] it was above 1 µM; in the assay with RS4; 11 (FLT3 wild type), above 1 µM; in [3] it was above 1 µM. Besides, the GI50 in assay [4] was 0.0001 to 0.001 µM; in assay [5], above 1 µM; in [6], above 1 µM; in assay [7] it was above 1 µM.

Regarding `Cn1nc(C(C)(C)C)cc1NC(=O)Nc1ccc(-n2cnc3ccccc32)cc1` [Compound 100, 1-(4-benzimidazol-1-yl-phenyl)-3-(5-tert-butyl-2-methyl-2H-pyrazol-3-yl)-urea], the GI50 was 0.0001 to 0.001 µM in assay [1]; above 1 µM in the assay with HL-60 (FLT3 wild type); above 1 µM with U937 (FLT3 wild-type); above 1 µM in assay [2]; above 1 µM in the assay with RS4; 11 (FLT3 wild type); above 1 µM in assay [3]. For the same compound, the GI50 in assay [4] is 0.0001 to 0.001 µM; in assay [5], above 1 µM; in [6], above 1 µM; in [7], above 1 µM.

Turning to `CC(C)(C)c1cc(NC(=O)Nc2ccc(-n3cnc4ccccc43)cc2)n(CCO)n1` [Compound 103, 1-(4-benzimidazol-1-yl-phenyl)-3-[5-tert-butyl-2-(2-hydroxy-ethyl)-2H-pyrazol-3-yl]-urea], the GI50 is 0.001 to 0.01 µM in assay [1]; above 1 µM in the assay with HL-60 (FLT3 wild type); above 1 µM in the assay with U937 (FLT3 wild-type); above 1 µM in assay [2]; above 1 µM with RS4; 11 (FLT3 wild type); above 1 µM in [3]. Moreover, the GI50 in [4] is 0.001 to 0.01 µM; in [5] it was above 1 µM; in assay [6], above 1 µM; in assay [7], above 1 µM.

In the case of `CC(C)(C)c1cc(NC(=O)Nc2ccc(-n3cnc4ccccc43)cc2)n(-c2ccccc2)n1` [Compound 104, 1-(4-benzimidazol-1-yl-phenyl)-3-(5-tert-butyl-2-phenyl-2H-pyrazol-3-yl)-urea], the GI50 in [1] was 0.0001 to 0.001 µM; in the assay on HL-60 (FLT3 wild type), above 1 µM; in the assay on U937 (FLT3 wild-type), above 1 µM; in assay [2], above 1 µM; with RS4; 11 (FLT3 wild type) it was above 1 µM; in assay [3] it was above 1 µM. In addition, the GI50 was 0.0001 to 0.001 µM in [4], above 1 µM in assay [5], above 1 µM in [6] and above 1 µM in assay [7].

Take `Cc1ccc(-n2nc(C(C)(C)C)cc2NC(=O)Nc2ccc(-n3cnc4ccccc43)cc2)cc1` [Compound 105, 1-(4-benzimidazol-1-yl-phenyl)-3-(5-tert-butyl-2-p-tolyl-2H-pyrazol-3-yl)-urea]: the GI50 in assay [1] is 0.01 to 0.1 µM; in the assay on HL-60 (FLT3 wild type), above 1 µM; with U937 (FLT3 wild-type), above 1 µM; in assay [2], above 1 µM; in the assay with RS4; 11 (FLT3 wild type), above 1 µM; in assay [3], above 1 µM. Further, the GI50 is 0.01 to 0.1 µM in [4], above 1 µM in assay [5], above 1 µM in [6] and above 1 µM in assay [7].

As for `COc1ccc(-n2nc(C(C)(C)C)cc2NC(=O)Nc2ccc(-n3cnc4ccccc43)cc2)cc1` [Compound 106, 1-(4-benzimidazol-1-yl-phenyl)-3-[5-tert-butyl-2-(4-methoxyl-phenyl)-2H-pyrazol-3-yl]-urea], the GI50 in [1] is 0.01 to 0.1 µM; with HL-60 (FLT3 wild type), above 1 µM; in the assay with U937 (FLT3 wild-type), above 1 µM; in assay [2], above 1 µM; with RS4; 11 (FLT3 wild type), above 1 µM; in [3] it was above 1 µM. Besides, the GI50 in [4] was 0.01 to 0.1 µM; in [5], above 1 µM; in [6] it was above 1 µM; in [7], above 1 µM.

Turning to `CC(C)(C)c1cc(NC(=O)Nc2ccc(-n3cnc4ccccc43)cc2)n(-c2ccc(OC(F)(F)F)cc2)n1` [Compound 107, 1-(4-benzimidazol-1-yl-phenyl)-3-[5-tert-butyl-2-(4-trifluoromethoxy-phenyl)-2H-pyrazol-3-yl]-urea], the GI50 in assay [1] was 0.01 to 0.1 µM; in the assay on HL-60 (FLT3 wild type) it was above 1 µM; in the assay with U937 (FLT3 wild-type) it was above 1 µM; in assay [2], above 1 µM; with RS4; 11 (FLT3 wild type) it was above 1 µM; in assay [3], above 1 µM. Moreover, the GI50 in assay [4] was 0.01 to 0.1 µM; in [5], above 1 µM; in assay [6], above 1 µM; in assay [7] it was above 1 µM.

Consider `CC(C)(C)c1cc(NC(=O)Nc2ccc(-n3cnc4ccccc43)cc2)n(-c2ccc(F)cc2)n1` [Compound 108, 1-(4-benzimidazol-1-yl-phenyl)-3-[5-tert-butyl-2-(4-fluoro-phenyl)-2H-pyrazol-3-yl]-urea], for which the GI50 was 0.01 to 0.1 µM in assay [1]; above 1 µM with HL-60 (FLT3 wild type); above 1 µM in the assay with U937 (FLT3 wild-type); 0.1 to 1 µM in assay [2]; 0.1 to 1 µM in the assay with RS4; 11 (FLT3 wild type); above 1 µM in assay [3]. Further, the GI50 in assay [4] is 0.01 to 0.1 µM; in [5], above 1 µM; in assay [6] it was above 1 µM; in assay [7] it was 0.1 to 1 µM.

With `CC(C)(C)c1cc(NC(=O)Nc2ccc(-n3cnc4ccccc43)cc2)n(-c2ccccc2F)n1` [Compound 109, 1-(4-benzimidazol-1-yl-phenyl)-3-[5-tert-butyl-2-(2-fluoro-phenyl)-2H-pyrazol-3-yl]-urea], the GI50 was 0.001 to 0.01 µM in assay [1]; above 1 µM in the assay on HL-60 (FLT3 wild type); above 1 µM with U937 (FLT3 wild-type); 0.1 to 1 µM in assay [2]; 0.1 to 1 µM in the assay with RS4; 11 (FLT3 wild type); above 1 µM in [3]. Also, the GI50 in assay [4] is 0.001 to 0.01 µM; in [5], above 1 µM; in assay [6], above 1 µM; in [7], above 1 µM.

For `CC(C)(C)c1cc(NC(=O)Nc2ccc(-n3cnc4ccccc43)cc2)n(-c2ccccn2)n1` [Compound 110, 1-(4-benzimidazol-1-yl-phenyl)-3-(5-tert-butyl-2-pyridin-2-yl-2H-pyrazol-3-yl)-urea], the GI50 in assay [1] was 0.01 to 0.1 µM; with HL-60 (FLT3 wild type), above 1 µM; with U937 (FLT3 wild-type), above 1 µM; in [2], above 1 µM; in the assay with RS4; 11 (FLT3 wild type), above 1 µM; in assay [3], above 1 µM. The GI50 in assay [4] is 0.01 to 0.1 µM; in [5], above 1 µM; in assay [6], above 1 µM; in assay [7], above 1 µM.

With `CCOC(=O)c1ccc(-n2nc(C(C)(C)C)cc2NC(=O)Nc2ccc(-n3cnc4ccccc43)cc2)cc1` [Compound 111, ethyl 4-{5-[3-(4-benzimidazol-1-yl-phenyl)-carbamido]-3-tert-butyl-pyrazol-1-yl}-benzoate], the GI50 in assay [1] is 0.001 to 0.01 µM; in the assay with HL-60 (FLT3 wild type), above 1 µM; in the assay with U937 (FLT3 wild-type), above 1 µM; in [2], 0.1 to 1 µM; in the assay on RS4; 11 (FLT3 wild type), 0.1 to 1 µM; in [3], above 1 µM. The GI50 in [4] was 0.001 to 0.01 µM; in assay [5], above 1 µM; in assay [6], above 1 µM; in [7], above 1 µM.

`Nc1cc(C2CC2)nn1C(=O)Nc1ccc(-n2cnc3ccccc32)cc1` [Compound 114, 5-amino-3-cyclopropylpyrazol-1-formic acid (4-benzimidazol-1-yl-phenyl)-amide]: the GI50 in assay [1] is 0.1 to 1 µM; in the assay on HL-60 (FLT3 wild type) it was above 1 µM; in the assay with U937 (FLT3 wild-type), above 1 µM; in assay [2] it was above 1 µM; in the assay on RS4; 11 (FLT3 wild type) it was above 1 µM; in [3] it was above 1 µM. Also, the GI50 in assay [4] is 0.1 to 1 µM; in assay [5], above 1 µM; in [6], above 1 µM; in assay [7] it was above 1 µM.

As for `Nc1cc(C(F)(F)F)nn1C(=O)Nc1ccc(-n2cnc3ccccc32)cc1` [Compound 115, 5-amino-3-trifluoromethylpyrazol-1-carboxylic acid (4-benzimidazol-1-yl-phenyl)-amide], the GI50 was 0.1 to 1 µM in assay [1]; above 1 µM in the assay on HL-60 (FLT3 wild type); above 1 µM with U937 (FLT3 wild-type); above 1 µM in assay [2]; above 1 µM with RS4; 11 (FLT3 wild type); above 1 µM in [3]. In addition, the GI50 in assay [4] is 0.1 to 1 µM; in assay [5], above 1 µM; in assay [6], above 1 µM; in assay [7] it was 0.1 to 1 µM.
